Measured values: the supplement of paper PMC9663587

Key:
[1] = compound: CCc1cnn2c(NCc3ccc[n+]([O-])c3)cc(N3CCCC[C@H]3CCO)nc12; test: GR value, 72 h; higher = faster growth (1 = untreated, <0 = killing);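 further: breast cancer and non-malignant breast epithelial lines, nine half-log doses, viable cells counted by Hoechst and LIVE/DEAD dye imaging versus time-zero plates and DMSO controls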
[2] = compound: C=CC(=O)Nc1ccc(C(=O)Nc2[nH]nc3c2CN(C(=O)N[C@H](CN(C)C)c2ccccc2)C3(C)C)cc1 [YKL-5-124]; test: as above
[3] = compound: CC(=O)c1c(C)c2cnc(Nc3ccc(N4CCNCC4)cn3)nc2n(C2CCCC2)c1=O; test: as above
[4] = compound: T1, CN1CC[C@H](c2c(O)cc(O)c3c(=O)cc(-c4ccccc4Cl)oc23)[C@H](O)C1 [Flavopiridol]; test: as above
[5] = compound: CN(C)C/C=C/C(=O)Nc1ccc(C(=O)N2CCC[C@@H](Nc3ncc(Cl)c(-c4c[nH]c5ccccc45)n3)C2)cc1 [THZ531]; test: as above
[6] = compound: CN(C)C(=O)c1cc2cnc(Nc3ccc(N4CCNCC4)cn3)nc2n1C1CCCC1 [LEE011/Ribociclib]; test: as above
[7] = compound: CCN1CCN(Cc2ccc(Nc3ncc(F)c(-c4cc(F)c5nc(C)n(C(C)C)c5c4)n3)nc2)CC1; test: as above
[8] = compound: CC(=O)c1c(C)c2cnc(Nc3ccc(N4CCN(CCOCCOCCOCCNC(=O)COc5cccc6c5C(=O)N(C5CCC(=O)NC5=O)C6=O)CC4)cn3)nc2n(C2CCCC2)c1=O [BSJ-03-123]; test: as above
[9] = compound: O=C(c1cc(Cc2n[nH]c(=O)c3ccccc23)ccc1F)N1CCN(C(=O)C2CC2)CC1 [Olaparib/AZD2281]
[10] = compound: CC(=O)O[C@H]1C(=O)[C@@]2(C)[C@H]([C@H](OC(=O)c3ccccc3)[C@]3(O)C[C@H](OC(=O)[C@H](O)[C@@H](NC(=O)c4ccccc4)c4ccccc4)C(C)=C1C3(C)C)[C@]1(OC(C)=O)CO[C@@H]1C[C@@H]2O [Paclitaxel]
[11] = compound: CN(C)C/C=C/C(=O)Nc1ccc(O[C@@H]2CCC[C@@H](Nc3ncc(Cl)c(-c4c[nH]c5ccccc45)n3)C2)cc1 [BSJ-01-175]
[12] = compound: T1, Flavopiridol
[13] = compound: Cc1nc(-c2cn3c(n2)-c2ccc(-c4cnn(C(C)(C)C(N)=O)c4)cc2OCC3)n(C(C)C)n1 [Taselisib/GDC0032]
[14] = compound: CC(C)NC[C@@H](C(=O)N1CCN(c2ncnc3c2[C@H](C)C[C@H]3O)CC1)c1ccc(Cl)cc1 [Ipatasertib/GDC0068]
[15] = compound: CCNC(=O)c1noc(-c2cc(C(C)C)c(O)cc2O)c1-c1ccc(CN2CCOCC2)cc1 [Luminespib/NVP-AUY922]
[16] = compound: CN(C)CC[C@H](CSc1ccccc1)Nc1ccc(S(=O)(=O)NC(=O)c2ccc(N3CCN(Cc4ccccc4-c4ccc(Cl)cc4)CC3)cc2)cc1[N+](=O)[O-] [ABT-737]
[17] = compound: COc1cccc2c1C(=O)c1c(O)c3c(c(O)c1C2=O)C[C@@](O)(C(=O)CO)C[C@@H]3O[C@H]1C[C@H](N)[C@H](O)[C@H](C)O1 [Doxorubicin]
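Wherever GR50, 72 h is given: breast cancer and non-malignant breast epithelial cell lines, Deep Dye Drop or Dye Drop imaging, nine half-log doses, GR normalized to time-zero plates and DMSO-only controls.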

How did the GR value ([1]; 0.0001 µM) turn out when MDAMB453 was run?
The GR value was 1.05 GR.

And the GR value ([1]; 0.0003162 µM)?
Its GR value is 1.06 GR.

What about the GR value ([1]; 0.001 µM) of the same cell line?
The GR value was 1.04 GR.

And the GR value ([1]; 0.003162 µM)?
Its GR value is 1.03 GR.

And the GR value ([1]; 0.01 µM)?
Its GR value is 0.645 GR.

And the GR value ([1]; 0.03162 µM)?
Its GR value is -0.173 GR.

And the GR value ([1]; 0.1 µM)?
Its GR value is -0.28 GR.

And the GR value ([1]; 0.3162 µM)?
Its GR value is -0.238 GR.

What about the GR value ([1]; 1 µM) of the same cell line?
The GR value was -0.242 GR.

What about the GR value ([2]; 0.001 µM) of the same cell line?
The GR value was 0.574 GR.

And the GR value ([2]; 0.003162 µM)?
The GR value was 0.333 GR.

What about the GR value ([2]; 0.01 µM) of the same cell line?
Its GR value is 0.209 GR.

What about the GR value ([2]; 0.03162 µM) of the same cell line?
The GR value was 0.209 GR.

What about the GR value ([2]; 0.1 µM) of the same cell line?
Its GR value is 0.143 GR.

What about the GR value ([2]; 0.3162 µM) of the same cell line?
The GR value was 0.0956 GR.

And the GR value ([2]; 1 µM)?
Its GR value is 0.128 GR.

And the GR value ([2]; 3.162 µM)?
Its GR value is 0.143 GR.

What about the GR value ([2]; 10 µM) of the same cell line?
The GR value was -0.503 GR.

And the GR value ([3]; 0.0003162 µM)?
The GR value was 1.08 GR.

What about the GR value ([3]; 0.001 µM) of the same cell line?
Its GR value is 1.06 GR.

What about the GR value ([3]; 0.003162 µM) of the same cell line?
The GR value was 0.994 GR.

And the GR value ([3]; 0.01 µM)?
Its GR value is 0.851 GR.

And the GR value ([3]; 0.03162 µM)?
The GR value was 0.607 GR.

What about the GR value ([3]; 0.1 µM) of the same cell line?
The GR value was 0.278 GR.

And the GR value ([3]; 0.3162 µM)?
Its GR value is 0.105 GR.

What about the GR value ([3]; 1 µM) of the same cell line?
Its GR value is 0.0968 GR.

What about the GR value ([3]; 3.162 µM) of the same cell line?
The GR value was 0.0641 GR.

What about the GR value ([4]; 0.0001 µM) of the same cell line?
Its GR value is 1.06 GR.

And the GR value ([4]; 0.0003162 µM)?
Its GR value is 1.04 GR.

What about the GR value ([4]; 0.001 µM) of the same cell line?
Its GR value is 0.944 GR.

And the GR value ([4]; 0.003162 µM)?
Its GR value is 0.819 GR.

And the GR value ([4]; 0.01 µM)?
The GR value was 0.916 GR.

What about the GR value ([4]; 0.03162 µM) of the same cell line?
The GR value was 1.05 GR.

What about the GR value ([4]; 0.1 µM) of the same cell line?
The GR value was 0.671 GR.

What about the GR value ([4]; 0.3162 µM) of the same cell line?
Its GR value is 0.0173 GR.

What about the GR value ([4]; 1 µM) of the same cell line?
The GR value was -0.186 GR.

And the GR value ([5]; 0.0001 µM)?
The GR value was 1.1 GR.

And the GR value ([5]; 0.0003162 µM)?
The GR value was 0.965 GR.

What about the GR value ([5]; 0.001 µM) of the same cell line?
The GR value was 0.877 GR.

And the GR value ([5]; 0.003162 µM)?
Its GR value is 0.996 GR.

And the GR value ([5]; 0.01 µM)?
Its GR value is 0.851 GR.

What about the GR value ([5]; 0.03162 µM) of the same cell line?
The GR value was 0.38 GR.

What about the GR value ([5]; 0.1 µM) of the same cell line?
Its GR value is -0.333 GR.

And the GR value ([5]; 0.3162 µM)?
Its GR value is -0.27 GR.

And the GR value ([5]; 1 µM)?
Its GR value is -0.266 GR.

And the GR value ([6]; 0.001 µM)?
Its GR value is 0.717 GR.

What about the GR value ([6]; 0.003162 µM) of the same cell line?
The GR value was 0.647 GR.

What about the GR value ([6]; 0.01 µM) of the same cell line?
Its GR value is 0.562 GR.

What about the GR value ([6]; 0.03162 µM) of the same cell line?
Its GR value is 0.637 GR.

And the GR value ([6]; 0.1 µM)?
The GR value was 0.461 GR.

And the GR value ([6]; 0.3162 µM)?
The GR value was 0.365 GR.

What about the GR value ([6]; 1 µM) of the same cell line?
Its GR value is 0.273 GR.

What about the GR value ([6]; 3.162 µM) of the same cell line?
Its GR value is 0.225 GR.

What about the GR value ([6]; 10 µM) of the same cell line?
Its GR value is 0.208 GR.

What about the GR value ([7]; 0.001 µM) of the same cell line?
The GR value was 0.908 GR.

And the GR value ([7]; 0.003162 µM)?
Its GR value is 0.615 GR.

And the GR value ([7]; 0.01 µM)?
The GR value was 0.211 GR.

What about the GR value ([7]; 0.03162 µM) of the same cell line?
Its GR value is 0.0514 GR.

And the GR value ([7]; 0.1 µM)?
Its GR value is 0.0343 GR.

And the GR value ([7]; 0.3162 µM)?
The GR value was 0.0775 GR.

What about the GR value ([7]; 1 µM) of the same cell line?
Its GR value is 0.0548 GR.

And the GR value ([7]; 3.162 µM)?
Its GR value is 0.0127 GR.

And the GR value ([7]; 10 µM)?
Its GR value is -0.787 GR.

What about the GR value ([8]; 0.001 µM) of the same cell line?
The GR value was 0.989 GR.

And the GR value ([8]; 0.003162 µM)?
Its GR value is 0.922 GR.

And the GR value ([8]; 0.01 µM)?
The GR value was 0.874 GR.

What about the GR value ([8]; 0.03162 µM) of the same cell line?
Its GR value is 0.843 GR.

And the GR value ([8]; 0.1 µM)?
Its GR value is 0.841 GR.

And the GR value ([8]; 0.3162 µM)?
Its GR value is 0.699 GR.

What about the GR value ([8]; 1 µM) of the same cell line?
Its GR value is 0.639 GR.

And the GR value ([8]; 3.162 µM)?
Its GR value is 0.575 GR.

What about the GR value ([8]; 10 µM) of the same cell line?
Its GR value is -0.011 GR.

And the “GR50, 72 h” value [9]?
Its value is 1.67 µM.

And the “GR50, 72 h” value [10]?
Its value is 0.00247 µM.

What about the “GR50, 72 h” value [11] of the same cell line?
Its value is 0.00336 µM.

And the “GR50, 72 h” value [12]?
Its value is 0.134 µM.

And the “GR50, 72 h” value [13]?
Its value is 0.00346 µM.

And the “GR50, 72 h” value [14]?
The value was 0.542 µM.

And the “GR50, 72 h” value [15]?
The value was 0.0033 µM.

What about the “GR50, 72 h” value [16] of the same cell line?
Its value is 5.97 µM.

What about the “GR50, 72 h” value [17] of the same cell line?
The value was 0.00587 µM.
